Test results published in patent US12171768B2, “IRAK4 degraders and uses thereof” (priority 2021, dated 2024).
Entries after “also recorded” stand apart in the source; their conditions may differ.

Legend:
[1] = target: T1, IRAK4 (Rattus norvegicus, UniProt A0A8I6G1H3); experiment: In vitro IRAK4 degradation in rat splenocytes; type: cell-based; details: read-out: DC50, IRAK4 degradation
T1 construct: endogenous in cells; host or cells: rat splenocytes

[2] = target: T2, IRAK4 (Canis lupus familiaris, UniProt A0A8I3S726); experiment: In vitro IRAK4 degradation in dog PBMCs; type: cell-based; details: read-out: DC50, IRAK4 degradation
T2 construct: endogenous in cells; host or cells: dog PBMCs (A3); PBMCs and skin of dosed dogs (A12)
T2 sequence (A0A8I3S726 1-460): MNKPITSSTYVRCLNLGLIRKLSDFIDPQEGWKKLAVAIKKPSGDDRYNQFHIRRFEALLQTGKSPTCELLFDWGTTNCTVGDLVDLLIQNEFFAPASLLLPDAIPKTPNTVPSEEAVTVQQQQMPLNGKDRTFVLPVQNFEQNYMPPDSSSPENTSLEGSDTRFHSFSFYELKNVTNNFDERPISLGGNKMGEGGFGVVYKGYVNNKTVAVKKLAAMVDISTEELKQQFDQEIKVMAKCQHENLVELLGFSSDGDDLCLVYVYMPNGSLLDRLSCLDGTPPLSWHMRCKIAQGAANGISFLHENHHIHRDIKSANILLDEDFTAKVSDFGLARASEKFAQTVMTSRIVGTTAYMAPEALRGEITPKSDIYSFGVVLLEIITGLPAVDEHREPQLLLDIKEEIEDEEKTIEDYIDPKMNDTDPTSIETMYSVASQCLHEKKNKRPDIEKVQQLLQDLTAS

[3] = system: TLR agonist (lipopolysaccharide and R848) and IL-1β-induced proinflammatory cytokine production; experiment: In vitro cytokine release assays in PBMCs; type: cell-based; details: LPS
[4] = system: MSU-crystal induced inflammation; experiment: Mouse air pouch model of MSU-crystal induced (TLR 2/4-dependent) inflammation; type: in vivo; details: 3 days twice daily, 30 to 100 mg/kg
[5] = system: imiquimod psoriasis model; experiment: Imiquimod psoriasis model (TLR 7/8-dependent); type: in vivo, murine
[6] = In vivo pharmacokinetic studies in rats, dogs and monkeys
[7] = Permeability; type: in vitro ADME
[8] = target: P-glycoprotein (P-gp) (Homo sapiens, UniProt P08183); experiment: P-gp substrate identification in vitro; type: in vitro ADME
Sequence of P-glycoprotein (P-gp) (P08183 whole entry): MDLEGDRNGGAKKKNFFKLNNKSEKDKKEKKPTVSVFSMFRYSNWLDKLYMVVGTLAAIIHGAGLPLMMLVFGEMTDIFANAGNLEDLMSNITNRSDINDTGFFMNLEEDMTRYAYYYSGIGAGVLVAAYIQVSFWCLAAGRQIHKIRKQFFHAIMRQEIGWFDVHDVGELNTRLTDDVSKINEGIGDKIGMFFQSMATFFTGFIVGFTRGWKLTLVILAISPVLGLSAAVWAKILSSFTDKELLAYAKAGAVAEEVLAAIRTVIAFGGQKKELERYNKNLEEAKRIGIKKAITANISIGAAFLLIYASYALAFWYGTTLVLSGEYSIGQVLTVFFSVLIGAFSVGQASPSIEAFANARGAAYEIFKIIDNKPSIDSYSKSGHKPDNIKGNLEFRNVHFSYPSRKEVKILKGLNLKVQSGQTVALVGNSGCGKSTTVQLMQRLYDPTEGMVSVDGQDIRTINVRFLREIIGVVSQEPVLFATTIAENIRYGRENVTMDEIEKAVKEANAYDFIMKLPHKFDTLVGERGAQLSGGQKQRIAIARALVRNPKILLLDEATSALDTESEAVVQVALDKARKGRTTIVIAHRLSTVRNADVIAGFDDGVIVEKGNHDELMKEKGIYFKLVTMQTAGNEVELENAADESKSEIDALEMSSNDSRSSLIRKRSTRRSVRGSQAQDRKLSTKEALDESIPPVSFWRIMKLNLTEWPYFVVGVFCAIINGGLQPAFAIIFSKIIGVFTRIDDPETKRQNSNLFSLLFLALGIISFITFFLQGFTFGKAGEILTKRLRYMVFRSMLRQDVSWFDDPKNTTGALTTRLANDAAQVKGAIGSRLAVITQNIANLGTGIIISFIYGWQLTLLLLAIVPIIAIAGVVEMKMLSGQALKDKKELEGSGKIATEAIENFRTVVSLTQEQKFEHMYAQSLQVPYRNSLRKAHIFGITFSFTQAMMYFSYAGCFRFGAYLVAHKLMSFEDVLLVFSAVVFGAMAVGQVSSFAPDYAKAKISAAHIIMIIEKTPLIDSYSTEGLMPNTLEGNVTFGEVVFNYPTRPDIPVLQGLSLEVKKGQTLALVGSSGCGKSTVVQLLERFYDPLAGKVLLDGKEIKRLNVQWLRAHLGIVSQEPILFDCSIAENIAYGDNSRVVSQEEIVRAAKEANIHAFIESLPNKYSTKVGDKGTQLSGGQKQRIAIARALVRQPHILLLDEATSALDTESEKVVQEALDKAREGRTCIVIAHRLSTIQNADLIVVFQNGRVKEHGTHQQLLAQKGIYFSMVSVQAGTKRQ

[9] = Plasma protein binding; type: in vitro ADME; details: across nonclinical species and humans
[10] = target: CYP3A4 (Homo sapiens, UniProt P08684); experiment: In vitro drug-drug interaction study, CYP3A4; type: in vitro ADME
Sequence of CYP3A4 (P08684 whole entry): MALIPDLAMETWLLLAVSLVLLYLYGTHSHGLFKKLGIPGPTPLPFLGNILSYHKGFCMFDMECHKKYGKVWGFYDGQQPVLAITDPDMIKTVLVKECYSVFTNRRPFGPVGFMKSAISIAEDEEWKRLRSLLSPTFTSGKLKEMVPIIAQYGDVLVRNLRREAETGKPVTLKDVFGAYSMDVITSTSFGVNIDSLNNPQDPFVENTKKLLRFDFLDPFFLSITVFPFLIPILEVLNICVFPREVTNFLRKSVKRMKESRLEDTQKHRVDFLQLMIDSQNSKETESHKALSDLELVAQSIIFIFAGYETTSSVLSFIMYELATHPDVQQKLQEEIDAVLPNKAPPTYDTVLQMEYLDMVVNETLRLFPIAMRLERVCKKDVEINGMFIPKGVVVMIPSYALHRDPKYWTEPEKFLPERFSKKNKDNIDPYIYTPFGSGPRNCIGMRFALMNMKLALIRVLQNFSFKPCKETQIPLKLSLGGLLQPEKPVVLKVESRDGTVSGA

[11] = Phase 1 SAD plasma pharmacokinetics; type: in vivo, human; details: for Tmax: healthy volunteers
Description: Initially, a dose range of Compound A in single ascending dose (SAD) escalation cohorts will be explored in adult HVs (Part A). […] Safety and PK data from at least 3 completed SAD cohorts will determine initiation of and appropriate doses for the 14-day multiple ascending dose (MAD) portion of the study (Part B).
The graphical assessment of dose proportionality will be performed for AUC and Cmax. Relative bioavailability of food effect will be assessed based on AUC and Cmax.

T1 sequence (A0A8I6G1H3 1-461): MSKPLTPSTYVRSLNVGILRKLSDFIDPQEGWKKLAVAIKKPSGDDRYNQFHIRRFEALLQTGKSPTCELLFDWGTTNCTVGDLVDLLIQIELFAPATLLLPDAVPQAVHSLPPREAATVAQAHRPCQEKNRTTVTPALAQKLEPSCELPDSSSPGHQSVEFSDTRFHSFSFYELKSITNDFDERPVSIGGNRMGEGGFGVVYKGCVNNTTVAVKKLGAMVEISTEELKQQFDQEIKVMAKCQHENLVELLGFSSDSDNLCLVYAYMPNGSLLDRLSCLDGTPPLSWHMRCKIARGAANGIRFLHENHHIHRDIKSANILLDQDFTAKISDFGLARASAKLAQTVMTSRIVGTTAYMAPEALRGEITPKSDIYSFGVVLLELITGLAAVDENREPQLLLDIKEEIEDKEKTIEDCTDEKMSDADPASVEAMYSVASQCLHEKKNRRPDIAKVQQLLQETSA

Compound: Cn1c(=O)n([C@@H]2CCC(=O)NC2=O)c2cccc(C#CCOC3CCN(C[C@H]4CC[C@H](n5cc(NC(=O)c6cnn7ccc(N8C[C@H]9C[C@@H]8CO9)nc67)c(C(F)F)n5)CC4)CC3)c21 [Compound A, 5-((1R,4R)-2-oxa-5-azabicyclo[2.2.1]heptan-5-yl)-N-(3-(difluoromethyl)-1-((1r,4R)-4-((4-((3-(1-(2,6-dioxopiperidin-3-yl)-3-methyl-2-oxo-2,3-dihydro-1H-benzo[d]imidazol-4-yl)prop-2-yn-1-yl)oxy)piperidin-1-yl)methyl)cyclohexyl)-1H-pyrazol-4-yl)pyrazolo[1,5-a]pyrimidine-3-carboxamide]
- DC50 [1]: < 10 nM
- DC50 [2]: < 10 nM
- IC50, inhibition of proinflammatory cytokine production (IL-6, TNF-α, GM-CSF, IL-8) [3]: low nM range
- IRAK4 levels in the spleen [4]: significantly reduced
- Inflammatory exudate, including neutrophils and IL-1β [4]: significantly reduced
- Degradation of IRAK4 in the spleen and skin ([5]; mouse, in vivo): dose-dependent degradation
- Skin thickness ([5]; mouse, in vivo): reduction in skin thickness
- IL-1β in the skin ([5]; p<0.0001): significant reduction
- IL-6 in the skin ([5]; p<0.05, 300 mg/kg only): significant reduction
- Bioavailability [6]: low to moderate
- Clearance [6]: moderate to high
- Terminal half-life [6]: moderate
- Volume of distribution at steady state [6]: high
- Permeability [7]: moderate; also recorded: medium
- P-gp substrate [8]: substrate
- Plasma protein binding [9]: highly bound
- Inhibition of CYP3A4 [10]: potential time dependent inhibition
- Dose-dependent plasma exposures ([11]; SAD): plateaued after 1000 mg
- half-life ([11]; human, plasma, oral, after single dosing, across SAD cohorts): 25 to 40 h
- Tmax ([11]; human, plasma, SAD 1, single oral dose 25 mg): 8 h
- Tmax ([11]; human, plasma, SAD 2, single oral dose 75 mg): 7 h
- Tmax ([11]; human, plasma, SAD 3, single oral dose 150 mg): 9 h
- Tmax ([11]; human, plasma, SAD 4, single oral dose 300 mg): 8 h
- Tmax ([11]; human, plasma, SAD 6, single oral dose 1000 mg): 20 h
